Assay results from patent US5051417A, “Indolythiadiazines for treating heart failure” (Les Laboratoires Beecham S.A., priority 1988, dated 1991).

How the values were obtained:
canine cardiac PDE, CAM = experiment: Canine cardiac PDE inhibition, CAM; format: biochemical; details: n in table
canine cardiac PDE, CGI = target: T1, canine cardiac PDE, CGI (Canis lupus familiaris, UniProt A0A8I3NYE0); experiment: Canine cardiac PDE inhibition, CGI; format: biochemical; details: n in table
T1 construct: CANINE CARDIAC PDE; from tissue; host or cells: dog heart
T1 sequence (A0A8I3NYE0 1-1135): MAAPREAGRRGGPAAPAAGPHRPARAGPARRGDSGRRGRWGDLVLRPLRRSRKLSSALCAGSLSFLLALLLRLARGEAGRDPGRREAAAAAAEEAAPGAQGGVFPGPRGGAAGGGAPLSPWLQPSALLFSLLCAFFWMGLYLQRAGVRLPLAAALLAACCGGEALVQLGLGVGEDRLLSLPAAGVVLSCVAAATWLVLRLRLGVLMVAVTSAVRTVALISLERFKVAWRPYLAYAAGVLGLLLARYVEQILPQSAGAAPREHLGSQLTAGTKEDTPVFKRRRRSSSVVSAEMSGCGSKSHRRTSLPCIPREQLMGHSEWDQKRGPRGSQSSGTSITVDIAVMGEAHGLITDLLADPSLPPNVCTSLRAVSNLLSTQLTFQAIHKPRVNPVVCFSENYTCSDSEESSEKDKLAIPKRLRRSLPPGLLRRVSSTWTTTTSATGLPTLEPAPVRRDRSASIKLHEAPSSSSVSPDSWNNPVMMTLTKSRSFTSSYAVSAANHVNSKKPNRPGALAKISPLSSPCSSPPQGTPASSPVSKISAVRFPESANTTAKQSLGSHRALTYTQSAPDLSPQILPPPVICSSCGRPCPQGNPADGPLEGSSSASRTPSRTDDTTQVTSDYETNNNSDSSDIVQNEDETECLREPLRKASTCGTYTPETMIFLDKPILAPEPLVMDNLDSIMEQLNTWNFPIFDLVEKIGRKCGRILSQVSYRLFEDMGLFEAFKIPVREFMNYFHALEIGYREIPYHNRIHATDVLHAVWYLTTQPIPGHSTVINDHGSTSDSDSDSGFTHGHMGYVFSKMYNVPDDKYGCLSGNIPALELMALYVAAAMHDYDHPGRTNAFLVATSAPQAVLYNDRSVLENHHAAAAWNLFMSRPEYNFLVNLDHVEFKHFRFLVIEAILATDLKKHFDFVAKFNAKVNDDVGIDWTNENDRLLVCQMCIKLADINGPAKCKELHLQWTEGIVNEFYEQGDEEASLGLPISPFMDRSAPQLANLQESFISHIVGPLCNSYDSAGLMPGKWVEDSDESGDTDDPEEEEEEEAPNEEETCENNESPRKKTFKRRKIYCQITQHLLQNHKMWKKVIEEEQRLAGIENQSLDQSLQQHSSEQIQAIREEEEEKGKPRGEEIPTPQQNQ

[1] = test system: canine cardiac myofibrillar Ca++-dependent Mg++-ATPase; experiment: Measurement of myofibrillar Ca++-dependent Mg++-ATPase activity on canine cardiac myofibrils; format: biochemical; details: pH 7.0, 21° C.; for max (percent change of maximal ATPase activity): pCa=5.47
Description: 1. Measurement of myofibrillar Ca++-dependent Mq++-ATPase activity The effect on myofibrillar Ca++sensitivity and on maximal activity of myofibrillar Ca++-dependent Mg++-ATPase was determined on canine cardiac myofibrils. (a) Contractile protein preparation Cardiac myofibrils free of membrane contaminants were prepared from left ventricular tissue of dog hearts using a modification of the method described by SOLARO et al, Biochem. Biophys. Acta, 245, 259-262, (1971). Before centrifugation, the heart homogenate was filtered through gauze. After Triton X-100 treatments, the myofibrillar fraction was washed once by resuspension and centrifugation in 10 volumes of 1 mM EGTA, […], 30 mM imidazole, 2 mM MgCl2, pH 7.0. The pellet was then washed three times in 10 volumes of the same buffer without EGTA. Before the last centrifugation, the suspension of myofibrils was filtered through a stainless steel sieve with 0.25 mm meshes. Myofibrils were kept in pellet overnight. Before use, the pellet was suspended in a small amount of buffer, the protein concentration was determined by the method of BRADFORD M., Anal. Biochem., 1976, 72, 248 and adjusted in order to have a concentration between 6 and 7 mg/ml. (b) Myofibrillar ATPase activity Ca++-dependent myfibrillar ATPase activity was determined at 21° C., pH 7.0, by measuring the rate of release of inorganic phosphate. All assays were performed within 24hrs. of final purification, using the method described by SOLARO and […]., 51. 290-4,(1982). Reaction mixtures (4 ml) containing 0.6-0.7 mg/ml myofibrillar protein, 80mM KCl, 20 mM imidazole, 3 mM MgCl2, 1 mM EGTA, the desired amount of CaCl2, and the indicated concentration of drug or appropriate vehicle were preincubated for 6 min. prior to assay. The amount of CaCl2 was varied between 0 and 0.9 mM and the pCa (-log free Ca++) computed using 2.514×10^6 M^-1 as the apparent affinity of Ca++for EGTA at pH 7.0. Reactions were initiated by the addition of Na2 ATP to final concentration of 2 mM. After an incubation period of 12 min., reactions were quenched by the addition of an equal volume of ice-cold 10% trichloroacetic acid. The protein was pelleted by centrifugation (2000 g, 15 min.) and Pi was assayed in the supernatant fraction using a modification of the method described by LANZETTA et al, Anal. Biochem., 100, 95-97, (1979). The following solutions were prepared: (1) 3.7% ammonium heptamolybdate in 0.12 N H2 SO4 (2) 0.074% malachite green oxalate in 1% polyvinylic alcohol. The colour reagent was prepared by mixing an equal volume of solution (1) and (2) 15 min. before the assay. For the assay, 1,700 μl of 1% H2 SO4 and 1 ml of colour reagent were added to 100 μl of sample. Colour development occurred at room temperature for 30 min. and was quenched by the addition of 200 μl of 1M tri-potassium citrate. The absorbance was measured at 620 millimicrons. The effect of each compound, tested at the indicated concentration, on the relation between pCa and percent activation was determined taking 100% for the maximum ATPase activity obrained with vehicle alone. The effect on Ca++sensitivity was quantified by measuring the shift of the pCa giving 50% of the maximal control ATPase activity. The effect on maximal ATPase activity was expressed as the percent change of ATPase activity for pCa=5.47. Mean effects on myofibrillar ATPase activity were obtained from 1 to 5 preparations, (compounds tested at 2×10^-4 M).

anaesthetised dog = experiment: Cardiotonic activity in the dog (haemodynamics); format: in vivo, dog (male Beagle); details: i.v.
[2] = Stability in presence of air; format: physicochemical; details: free base
Description: However, the compounds can usually be stabilised by converting them to a salt form.
1 g (2.8mmol) 1,3-Dihydro-5-(3,6-dihydro-6-methyl-2-oxo-2H -1,3,4-thiadiazin-5-yl)-3-phenylimino-2H-indol-2-one (E6) and 1.87 g (28mmol) powdered zinc in 20 ml glacial acetic acid were refluxed for 10 minutes. The excess of zinc was removed by filtration and washed with acetic acid. 100 ml water were added to the filtrate and the precipitate was filtered, washed with water until neutral, and dried under vacuum. […] The crystals of the free base were suspended in a 1/5 mixture of methanol/ethyl ether (30 ml) and about 5 ml of a saturated solution of HCl gas in ethyl ether were added. After 1 hour of stirring, the white precipitate was filtered off, washed with ether and dried.

Compound | IC50 (canine cardiac PDE, CAM) [nM] | IC50 (canine cardiac PDE, CGI) [nM] | max (percent change of maximal ATPase activity) ([1]; 30 μM) | pCa (shift of the pCa giving 50% of the maximal control ATPase activity; Ca++ sensitivity) ([1]; 30 μM) | AoBF (anaesthetised dog; 0.1 mg/kg) | AoBP (anaesthetised dog; 0.1 mg/kg) | H.R. (anaesthetised dog; 0.1 mg/kg) | dP/dt Max (anaesthetised dog; 0.1 mg/kg) | AoBF (anaesthetised dog; 0.3 mg/kg) | AoBP (anaesthetised dog; 0.3 mg/kg) [%] | H.R. (anaesthetised dog; 0.3 mg/kg) | dP/dt Max (anaesthetised dog; 0.3 mg/kg) | AoBF (anaesthetised dog; 1.0 mg/kg) | AoBP (anaesthetised dog; 1.0 mg/kg) [%] | H.R. (anaesthetised dog; 1.0 mg/kg) | dP/dt Max (anaesthetised dog; 1.0 mg/kg) | max (percent change of maximal ATPase activity) ([1]; 10 μM) | pCa (shift of the pCa giving 50% of the maximal control ATPase activity; Ca++ sensitivity) ([1]; 10 μM) | AoBF (anaesthetised dog; 3.0 mg/kg) | AoBP (anaesthetised dog; 3.0 mg/kg) [%] | also measured
COC(=S)NN=C1C(=O)Nc2ccc(C3=NNC(=O)SC3C)cc21 (stereo not shown) [Example 3, O-Methyl 2-[2,3-dihydro-5-(3,6-dihydro-6-methyl-2-oxo-2H -1,3,4-thiadiazin-5-yl)-2-oxo-1H-indol-3-ylidene]-hydrazine carbothioate] | > 300000 | 270 | +3 ± 3% | +0.33 ± 0.05 | -30 ± 12% | -14 ± 7% | +28 ± 6% | +17 ± 6% | -63 ± 8% | -29 ± 6 | +54 ± 11% | +70 ± 5% | -50 ± 12% | -30 ± 1 | +93 ± 7% | +126 ± 9% |  |  |  |  | 
CON=C1C(=O)Nc2ccc(C3=NNC(=O)SC3C)cc21 (stereo not shown) [Example 2, 1,3-Dihydro-5-(3,6-dihydro-6-methyl-2-oxo-2H,1,3,4 thiadiazin-5-yl)-3-methoxyimino-2H-indol-2-one] | 6900 | 1300 | +13 ± 4% | 0.60 ± 0.11 | +8 ± 2% | +4 ± 2% | +13 ± 8% | +31 ± 9% | +16 ± 1% | -9 ± 1 | +26 ± 10% | +54 ± 20% | +33 ± 5% | -20 ± 5 | +55 ± 21% | +128 ± 56% | +5 ± 2% | 0.24 ± 0.01 |  |  | 
CC1SC(=O)NN=C1c1ccc2c(c1)C(=NNc1ccccc1)C(=O)N2 (stereo not shown) [Example 5, 5-(3,6-Dihydro-6-methyl-2-oxo-2H-1,3,4-thiadiazin-5-yl)-1H -indole-2,3-dione 3-phenylhydrazone] | > 300000 | 130 |  |  | -25 ± 1% | -14 ± 6% | +8 ± 1% | +7 ± 2% | -34 ± 5% | -12 ± 3 | +18 ± 7% | +24 ± 6% | -28 ± 4% | -12 ± 1 | +19 ± 16% | +42 ± 16% |  |  | -37 ± 2% | -19 ± 3 | H.R. (anaesthetised dog; 3.0 mg/kg): +58 ± 0%; dP/dt Max (anaesthetised dog; 3.0 mg/kg): +116 ± 31%
CC1SC(=O)NN=C1c1ccc2c(c1)C(=NO)C(=O)N2 (stereo not shown) [Example 1, 1,3-Dihydro-5-(3,6-dihydro-6-methyl-2-oxo-2H-1,3,4-thiadiazin-5-yl)-3-hydroxyimino-2H-indol-2-one] | 7900 | 660 | +1 ± 2% | 0.25 ± 0.07 | +8% | +4% | +13% | +31% | +16% | -9 | +30% | +54% | +33% | -20 | +55% | 128% | +5 ± 0% | 0.19 ± 0.09 |  |  | 
CC1SC(=O)NN=C1c1ccc2c(c1)C(=Cc1ccccc1O)C(=O)N2 (stereo not shown) [Example 17, 1,3-Dihydro-5-(3,6-dihydro-6-methyl-2-oxo-2H-1,3,4-thiadiazin-5-yl)-3-[(2-hydroxyphenyl)methylene]-2H -indol-2-one] | 23000 | 430 | -16 ± 3% | +0.60 ± 0.07 |  |  |  |  | +14 ± 2% | -8 ± 2 | +9 ± 3% | +6 ± 2% | +16 ± 1% | -7 ± 1 | +22 ± 5% | +35 ± 8% |  |  | +18 ± 4% | -20 ± 7 | H.R. (anaesthetised dog; 3.0 mg/kg): +52 ± 13%; dP/dt Max (anaesthetised dog; 3.0 mg/kg): +81 ± 18%
CC1SC(=O)NN=C1c1ccc2c(c1)C(Nc1ccccc1)C(=O)N2.Cl (stereo not shown) [Example 8, 1,3-Dihydro-5-(3,6-dihydro-6-methyl-2-oxo-2H-1,3,4-thiadiazin-5-yl)-3-phenylamino-2H-indol-2-one, hydrochloride] | 19000 | 1200 | 2 ± 3% | +0.87 ± 0.01 |  |  |  |  |  |  |  |  |  |  |  |  |  |  |  |  | stability in presence of air [2]: reverts to the starting material in presence of air
